The source of these data is ChEMBL document CHEMBL5528028, “Discovery of benzopyridone cyanoacetates as new type of potential broad-spectrum antibacterial candidates” (Eur J Med Chem, 2024).

What all share (format): functional
For experiment [1], the system named is Escherichia coli. Briefly: Antibacterial activity against Escherichia coli assessed growth inhibition by micro broth dilution method. Background: Dilution methods test growth across graded concentrations, often in twofold steps.
In experiment [2] the test system is Staphylococcus aureus. Briefly: Antibacterial activity against Staphylococcus aureus ATCC 25923 assessed growth inhibition by micro broth dilution method.
A further experiment relates to Enterococcus faecalis. The experiment is described as follows: Antibacterial activity against Enterococcus faecalis assessed growth inhibition by micro broth dilution method.
The next experiment relates to Klebsiella pneumoniae. Briefly: Antibacterial activity against Klebsiella pneumonia assessed growth inhibition by micro broth dilution method.
In experiment [3] the test system is Staphylococcus aureus. Briefly: Antibacterial activity against Staphylococcus aureus assessed growth inhibition by micro broth dilution method.
In experiment [4] the test system is Escherichia coli. The experiment is described as follows: Antibacterial activity against Escherichia coli ATCC 25922 assessed growth inhibition by micro broth dilution method.
For experiment [5], the system named is Pseudomonas aeruginosa. Briefly: Antibacterial activity against Pseudomonas aeruginosa ATCC 27853 assessed growth inhibition by micro broth dilution method.
In another experiment the test system is Acinetobacter baumannii. Briefly: Antibacterial activity against Acinetobacter baumannii assessed growth inhibition by micro broth dilution method.
Experiment [6] concerns Pseudomonas aeruginosa. Briefly: Antibacterial activity against Pseudomonas aeruginosa assessed growth inhibition by micro broth dilution method.
For experiment [7], the system named is Staphylococcus aureus. Briefly: Antibacterial activity against methicillin-resistant Staphylococcus aureus assessed growth inhibition by micro broth dilution method.
For experiment [8], the system named is Staphylococcus aureus. The experiment is described as follows: Antibacterial activity against Staphylococcus aureus ATCC 29213 assessed growth inhibition by micro broth dilution method.

Converted amounts (≈) assume the structure as drawn.

What is called MIC is the least concentration at which growth counts as inhibited. Read a high MIC as weaker potency. On to `CCOC(=O)C(C#N)c1cc2c(cc1F)c(=O)c(C(=O)O)cn2CC=C(C)C` (centres undefined), for which the MIC is 32 µg/mL (≈ 82.8 µM) in the experiment on Escherichia coli [1]; 4 µg/mL (≈ 10.4 µM) against Staphylococcus aureus [2]; 64 µg/mL (≈ 166 µM) with Enterococcus faecalis; 0.25 µg/mL (≈ 0.647 µM) against Klebsiella pneumoniae; 4 µg/mL (≈ 10.4 µM) in the experiment with Staphylococcus aureus [3]; 1 µg/mL (≈ 2.59 µM) with Escherichia coli [4]. Also, the MIC was 1 µg/mL (≈ 2.59 µM) with Pseudomonas aeruginosa [5]; 1 µg/mL (≈ 2.59 µM) with Acinetobacter baumannii; 8 µg/mL (≈ 20.7 µM) against Pseudomonas aeruginosa [6]; 8 µg/mL (≈ 20.7 µM) against Staphylococcus aureus [7]; 4 µg/mL (≈ 10.4 µM) against Staphylococcus aureus [8].
As for `CCOC(=O)c1cn(Cc2cnc(Cl)s2)c2cc([C-](C#N)C(=O)OCC)c(F)cc2c1=O.[Na+]` (centres undefined), the MIC with Escherichia coli [1] came to 4 µg/mL; in the experiment on Staphylococcus aureus [2], 4 µg/mL; against Enterococcus faecalis, 4 µg/mL; in the experiment on Klebsiella pneumoniae, 32 µg/mL; in the experiment with Staphylococcus aureus [3], 32 µg/mL; in the experiment on Escherichia coli [4], 8 µg/mL. Besides, the MIC came out at 2 µg/mL against Pseudomonas aeruginosa [5]; 16 µg/mL in the experiment on Acinetobacter baumannii; 64 µg/mL in the experiment on Pseudomonas aeruginosa [6]; 4 µg/mL in the experiment on Staphylococcus aureus [7]; 8 µg/mL in the experiment with Staphylococcus aureus [8].
With `CCOC(=O)c1cn(Cc2ccccn2)c2cc(F)c(F)cc2c1=O`, the MIC came out at 2 µg/mL (≈ 5.81 µM) in the experiment with Escherichia coli [1]; 64 µg/mL (≈ 186 µM) against Staphylococcus aureus [2]; 128 µg/mL (≈ 372 µM) in the experiment on Enterococcus faecalis; 128 µg/mL (≈ 372 µM) in the experiment on Klebsiella pneumoniae; 64 µg/mL (≈ 186 µM) against Staphylococcus aureus [3]; 64 µg/mL (≈ 186 µM) with Escherichia coli [4]. In addition, the MIC was 64 µg/mL (≈ 186 µM) in the experiment on Pseudomonas aeruginosa [5]; 16 µg/mL (≈ 46.5 µM) with Acinetobacter baumannii; 128 µg/mL (≈ 372 µM) against Pseudomonas aeruginosa [6]; 256 µg/mL (≈ 744 µM) in the experiment with Staphylococcus aureus [7]; 128 µg/mL (≈ 372 µM) in the experiment on Staphylococcus aureus [8].
As for `CCOC(=O)c1cn(Cc2ccc(C)cc2)c2cc(F)c(F)cc2c1=O`, the MIC stood at 1 µg/mL (≈ 2.8 µM) in the experiment on Escherichia coli [1]; 64 µg/mL (≈ 179 µM) against Staphylococcus aureus [2]; 64 µg/mL (≈ 179 µM) in the experiment on Enterococcus faecalis; 128 µg/mL (≈ 358 µM) against Klebsiella pneumoniae; 64 µg/mL (≈ 179 µM) with Staphylococcus aureus [3]; 128 µg/mL (≈ 358 µM) in the experiment on Escherichia coli [4]. For the same compound, the MIC in the experiment on Pseudomonas aeruginosa [5] stood at 256 µg/mL (≈ 716 µM); in the experiment with Acinetobacter baumannii, 2 µg/mL (≈ 5.6 µM); in the experiment with Pseudomonas aeruginosa [6], 128 µg/mL (≈ 358 µM); against Staphylococcus aureus [7], 256 µg/mL (≈ 716 µM); with Staphylococcus aureus [8] it was 128 µg/mL (≈ 358 µM).
As to `NC1CCN(c2c(F)cc3c(=O)c(C(=O)O)cn(C4CC4)c3c2Cl)C1` (centres undefined) [CLINAFLOXACIN], the MIC was determined as 0.25 µg/mL (≈ 0.683 µM) with Escherichia coli [1]; 0.5 µg/mL (≈ 1.37 µM) with Staphylococcus aureus [2]; 4 µg/mL (≈ 10.9 µM) against Enterococcus faecalis; 0.5 µg/mL (≈ 1.37 µM) in the experiment on Klebsiella pneumoniae; 0.5 µg/mL (≈ 1.37 µM) against Staphylococcus aureus [3]; 0.25 µg/mL (≈ 0.683 µM) against Escherichia coli [4]. Moreover, the MIC against Pseudomonas aeruginosa [5] is 0.5 µg/mL (≈ 1.37 µM); in the experiment on Acinetobacter baumannii, 0.5 µg/mL (≈ 1.37 µM); against Pseudomonas aeruginosa [6], 0.5 µg/mL (≈ 1.37 µM); against Staphylococcus aureus [7], 1 µg/mL (≈ 2.73 µM); in the experiment with Staphylococcus aureus [8], 0.5 µg/mL (≈ 1.37 µM).
With `CCOC(=O)c1cn(CC)c2cc(C(C#N)C(=O)OCC)c(F)cc2c1=O` (centres undefined), the minimum inhibitory concentration (MIC) was 16 µg/mL (≈ 42.7 µM) with Escherichia coli [1]; 8 µg/mL (≈ 21.4 µM) against Staphylococcus aureus [2]; 32 µg/mL (≈ 85.5 µM) in the experiment with Enterococcus faecalis; 8 µg/mL (≈ 21.4 µM) against Klebsiella pneumoniae; 32 µg/mL (≈ 85.5 µM) against Staphylococcus aureus [3]; 16 µg/mL (≈ 42.7 µM) in the experiment on Escherichia coli [4]. Also, the MIC against Pseudomonas aeruginosa [5] was found to be 8 µg/mL (≈ 21.4 µM); with Acinetobacter baumannii it was 32 µg/mL (≈ 85.5 µM); with Pseudomonas aeruginosa [6] it was 8 µg/mL (≈ 21.4 µM); against Staphylococcus aureus [7], 256 µg/mL (≈ 684 µM); in the experiment with Staphylococcus aureus [8] it was 16 µg/mL (≈ 42.7 µM).
Consider `CCOC(=O)c1cn(Cc2ccccn2)c2cc([C-](C#N)C(=O)OCC)c(F)cc2c1=O.[Na+]` (centres undefined), for which the MIC in the experiment with Escherichia coli [1] worked out at 256 µg/mL; in the experiment with Staphylococcus aureus [2] it was 256 µg/mL; in the experiment with Enterococcus faecalis, 256 µg/mL; against Klebsiella pneumoniae, 256 µg/mL; in the experiment on Staphylococcus aureus [3], 256 µg/mL; in the experiment with Escherichia coli [4], 128 µg/mL. In addition, the MIC was 128 µg/mL in the experiment with Pseudomonas aeruginosa [5]; 256 µg/mL with Acinetobacter baumannii; 128 µg/mL in the experiment with Pseudomonas aeruginosa [6]; 256 µg/mL in the experiment on Staphylococcus aureus [7]; 256 µg/mL in the experiment on Staphylococcus aureus [8].
With `CCOC(=O)c1cn(C)c2cc(F)c(F)cc2c1=O`, the MIC with Escherichia coli [1] turned out to be 16 µg/mL (≈ 59.9 µM); with Staphylococcus aureus [2], 256 µg/mL (≈ 958 µM); against Enterococcus faecalis, 128 µg/mL (≈ 479 µM); with Klebsiella pneumoniae it was 64 µg/mL (≈ 239 µM); with Staphylococcus aureus [3], 128 µg/mL (≈ 479 µM); against Escherichia coli [4], 128 µg/mL (≈ 479 µM). The MIC in the experiment on Pseudomonas aeruginosa [5] was determined as 256 µg/mL (≈ 958 µM); in the experiment on Acinetobacter baumannii it was 256 µg/mL (≈ 958 µM); in the experiment on Pseudomonas aeruginosa [6] it was 64 µg/mL (≈ 239 µM); against Staphylococcus aureus [7] it was 256 µg/mL (≈ 958 µM); against Staphylococcus aureus [8] it was 128 µg/mL (≈ 479 µM).
In the case of `CCOC(=O)C(C#N)c1c(F)cc2c(=O)c(C(=O)O)cn3c2c1OC[C@@H]3C` (some centres undefined), the MIC came to 32 µg/mL (≈ 85.5 µM) with Escherichia coli [1]; 32 µg/mL (≈ 85.5 µM) against Staphylococcus aureus [2]; 128 µg/mL (≈ 342 µM) against Enterococcus faecalis; 8 µg/mL (≈ 21.4 µM) with Klebsiella pneumoniae; 4 µg/mL (≈ 10.7 µM) in the experiment on Staphylococcus aureus [3]; 1 µg/mL (≈ 2.67 µM) in the experiment on Escherichia coli [4]. Further, the MIC in the experiment with Pseudomonas aeruginosa [5] stood at 8 µg/mL (≈ 21.4 µM); against Acinetobacter baumannii it was 1 µg/mL (≈ 2.67 µM); against Pseudomonas aeruginosa [6], 16 µg/mL (≈ 42.7 µM); in the experiment with Staphylococcus aureus [7] it was 4 µg/mL (≈ 10.7 µM); against Staphylococcus aureus [8] it was 4 µg/mL (≈ 10.7 µM).
